The subject of series [1] is α-DNP antibody. Nature of the series: Endocytosis of α-DNP antibody in hepatocytes. The class given is cell-based. Conditions: FIG. 6C; 12 hour time point.
The test system of series [2] is α-DNP antibody. As to the kind of experiment: Colocalization microscopy studies (Alexa 488 signal, EEA1/LAMP2). The format is cell-based. Conditions: FIG. 7A. The method, then: Cells were grown in 8-well microscope cell culture containers (Thermo, 177402) treated with polylysine (Fisher Scientific, 343810001). For all experiments, D-MoDE-A was used at a final concentration of 40 nM, and antibody was used at a final concentration of 100 nM. At 12 hours, cell culture media was removed and cells were washed with PBS once before fixation with 3.5% formaldehyde PBS solution for 13 minutes. Cells were then washed with PBS, and permeabilized for 5 minutes with 0.5% triton X-100 in PBS. Cells were blocked with 0.2% tween in TBS (Tween 20, AmericanBio, Ref AB02038-00500) and 3% BSA (Sigma, A9418) for one hour at room temperature. […] After incubation for 1 hour in a humidified chamber protected from light, cells were washed 3× with PBST for 5 minutes each. Cells were then treated with Alexa Fluor 568-labeled secondary antibody (Abcam, ab175473) at 1:500 dilution. Cells were washed 3× with PBST for 5 minutes each, then treated with PBS containing Hoechst stain (final concentration 1 μg/mL), incubated at room temperature for at least 10 minutes, and imaged. Cells were visualized using a Zeiss Axio Observer Z1 inverted microscope using 63× magnification under oil. Image analysis was performed on ZEN2 (blue edition) version 2.0.0.0.

Series [3] relates to α-DNP antibody. Nature of the series: In vivo serum levels of α-DNP antibody in mice (ELISA). Conditions: FIG. 8D, single variable dose. The method, then:
In vivo experiments were performed under Yale University IACUC supervision following protocol entitled “pre-clinical evaluation of small molecule immunomodulators” (Protocol number 2017-11445). Experiments were performed in male nude mice purchased from Jackson Laboratory (NU/J, Stock No. 002019). Compounds were administered i.p. in a volume of 100 μL PBS. Approximately 25 μL of blood was collected at each time point by saphenous bleed. Antibody was administered as 40 μg in 100 μL i.p. Compounds were administered daily at the specified dose throughout the course of experiments. For data analysis, antibody levels were normalized to the recorded concentration of antibody observed in each mouse 24 hours after the i.p. administration.
ELISA analysis of serum samples was performed using MaxiSorp 96 well plates (Thermo, 44-2404-21). Plates were coated with 50 μL of BSA-DNP (Invitrogen, A23018) at 100 ug/mL in PBS and incubated at 4° C. overnight. Coating solution was then removed, and the plates were blocked with 2% BSA in PBS for 2 hours at room temperature, followed by washing twice with PBST (0.2% Tween). Serum samples were diluted in 2% BSA in PBS. […] The plates were then treated with TMB (Thermo 34028) followed by 2 M H2SO4 and analyzed for OD at 450 nm on a plate reader (BioTek Synergy 2). Sample concentrations were determined against a standard curve.
On the technique in general: An ELISA detects its analyte on a solid surface through an enzyme-linked reagent.

Series [4] relates to α-DNP antibody / ASGPR on hepatocytes. Nature of the series: Ternary complex formation between hepatocytes and α-DNP antibody. The format is cell-based.

With `CC(=O)N[C@H]1[C@H](OCCOCCOCCNC(=O)CCOCC(COCCC(=O)NCCOCCOCCO[C@@H]2O[C@H](CO)[C@H](O)[C@H](O)[C@H]2NC(C)=O)(COCCC(=O)NCCOCCOCCO[C@@H]2O[C@H](CO)[C@H](O)[C@H](O)[C@H]2NC(C)=O)NC(=O)CNC(=O)COCCOCCOCCNc2ccc([N+](=O)[O-])cc2[N+](=O)[O-])O[C@H](CO)[C@H](O)[C@@H]1O` [D-MoDE-A], the “endocytosis of α-DNP antibody in hepatocytes” value in the series with α-DNP antibody [1] was “dependent on both α-DNP antibody and DMoDE-A concentration”. In addition, in the series on α-DNP antibody [2], the “Alexa 488 signal in colocalization studies” value was “dependent on the presence of α-DNP antibody and D-MoDE-A”. Moreover, the “serum levels of α-DNP antibody” value in the series on α-DNP antibody [3] is listed as “decrease in serum levels of α-DNP antibody”. The “formation of a ternary complex between hepatocytes and α-DNP antibody” value in series [4] (FIG. 6A) is “dependent on the concentration of D-MoDE-A”. Moreover, the “ternary complex formation in presence of competitive binders of ASGPR or α-DNP antibody” value in series [4] (FIG. 6B) is given as “inhibited by competitive binders of either ASGPR or α-DNP antibody”.
